Test [1] concerns the target T1, 5HT2A receptor (Homo sapiens, UniProt P28223). Put plainly: biochemical. The format is binding. Further details: expressed in transfected cells; crude membranes.
For test [2], the target named is T1, 5HT2A receptor. As to the kind of experiment: cell-based. Further details: expressed in transfected cells; host or cells: HEK293T cells, transient co-transfection. Conditions: for Emax: HEK-293T.
Where [3] appears, read: 5HT2A Ki (nM), secondary binding assay, Cheng-Prusoff.
Setting [4] is: 5HTA Gq EC50 (nM), BRET2 Gαq dissociation, HEK293T.
Setting [5] is: BRET2 Gαq dissociation, HEK293T, normalized to 5-HT, read-out: 5HTA Gq Emax (%).
[6] abbreviates: 5HT2A Ki (nM), secondary radioligand binding, Ki from IC50 by Cheng-Prusoff.
[7] abbreviates: 5HT2A Gq EC50 (nM), BRET2 Gαq dissociation, HEK293T cells.
Setting [8] is: BRET2 Gαq dissociation, HEK293T cells, normalized to 5-HT, read-out: 5HT2A Gq Emax (%).
The mark [9] stands for this setting: secondary binding assay, Cheng-Prusoff, read-out: 5HT2A Ki.

SMILES strings stand for the structures. Where two headings read alike, the source gives them in different places. Some results are limits rather than exact numbers.

In general, Ki refers to the dissociation constant of the complex between target and ligand, obtained from inhibition or displacement. As a reminder, the EC50 is the concentration giving half of the maximal effect. By Emax is commonly meant the size of the effect at its maximum, as opposed to the concentration needed.

T1 sequence (P28223 whole entry): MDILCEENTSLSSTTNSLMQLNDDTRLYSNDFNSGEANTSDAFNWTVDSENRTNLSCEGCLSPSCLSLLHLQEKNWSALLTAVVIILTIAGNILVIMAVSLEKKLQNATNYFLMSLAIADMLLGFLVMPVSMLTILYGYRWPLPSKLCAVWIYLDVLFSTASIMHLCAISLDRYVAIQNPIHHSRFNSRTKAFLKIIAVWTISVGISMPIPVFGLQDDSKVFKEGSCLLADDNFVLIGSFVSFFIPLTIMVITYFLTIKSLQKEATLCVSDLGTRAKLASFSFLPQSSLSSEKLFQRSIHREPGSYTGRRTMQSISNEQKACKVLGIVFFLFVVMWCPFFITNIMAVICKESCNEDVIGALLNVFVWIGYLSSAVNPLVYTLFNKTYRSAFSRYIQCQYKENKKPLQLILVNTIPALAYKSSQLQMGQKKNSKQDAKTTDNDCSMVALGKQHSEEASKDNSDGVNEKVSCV

Consider `CCC(C)N1CCC=C(c2n[nH]c3c(Cl)cccc23)C1` (stereo not drawn) [Example 167, 3-(1-(sec-butyl)-1,2,5,6-tetrahydropyridin-3-yl)-7-chloro-1H-indazole], for which the Ki in test [1] (setting [3]) was found to be 525 nM. In test [2] (setting [4]), this molecule had an EC50 of 173 nM. Besides, the maximal effect (Emax) in test [2] (setting [5]) was 25.7%.
In test [1] (setting [3]), `Fc1cc(Cl)c2[nH]nc(C34CNCC3C4(F)F)c2c1` (stereo not drawn) [Example 203, 7-chloro-3-(6,6-difluoro-3-azabicyclo[3.1.0]hexan-1-yl)-5-fluoro-1H-indazole] yielded an inhibition constant Ki of 1080 nM. This molecule also had an EC50 in test [2] (setting [4]) of 700 nM. Moreover, in test [2] (setting [5]), the maximal response (Emax) stood at 39.5%.
On to `CCc1ccc2[nH]cc(C3=CCCNC3)c2c1` [Example 25, 5-ethyl-3-(1,2,5,6-tetrahydropyridin-3-yl)-1H-indole], for which the inhibitory constant (Ki) in test [1] (setting [6]) amounted to 941 nM. In addition, the EC50 in test [2] (setting [7]) amounted to 592 nM. In test [2] (setting [8]), the maximal response (Emax) amounted to 73.3%.
In test [1] (setting [6]), `CCc1cccc2c(C3=CCCNC3)c(Cl)[nH]c12` [Example 66, 2-chloro-7-ethyl-3-(1,2,5,6-tetrahydropyridin-3-yl)-1H-indole] displayed a Ki of 115 nM. In addition, a half-maximal effect in test [2] (setting [7]) (EC50) was put at 213 nM. The Emax in test [2] (setting [8]) is 79%.
In test [1] (setting [3]), `Cc1cc(Cl)cc2c(C3CNC3)c[nH]c12` [Example 263, 3-(azetidin-3-yl)-5-chloro-7-methyl-1H-indole] had a Ki of 244 nM. Moreover, in test [2] (setting [4]), the EC50 was 127 nM. Besides, in test [2] (setting [5]), the Emax stood at 63.7%.
`Fc1cc(Cl)c2[nH]nc(C34CNCCC3C4(F)F)c2c1` (stereo not drawn) [Example 191, 7-chloro-3-(7,7-difluoro-3-azabicyclo[4.1.0]heptan-1-yl)-5-fluoro-1H-indazole]: the affinity in test [1] (setting [3]) corresponds to a Ki of 3040 nM. In addition, in test [2] (setting [4]), the EC50 worked out at 1620 nM. Further, the Emax in test [2] (setting [5]) is 83%.
For the molecule `CCCN1CCC=C(c2n[nH]c3c(Cl)cc(F)cc23)C1` [Example 173, 7-chloro-5-fluoro-3-(1-propyl-1,2,5,6-tetrahydropyridin-3-yl)-1H-indazole], the affinity in test [1] (setting [3]) corresponds to a Ki of 839 nM. In addition, the EC50 in test [2] (BRET2 Gαq dissociation, HEK293T, read-out: 5HTA Gq EC50) was found to be 84.6 nM. Besides, in test [2] (setting [5]), the Emax came out at 57.3%.
In turn, `Cc1[nH]c2ccccc2c1C1=CCCN(C)C1` [Example 63, 2-methyl-3-(1-methyl-1,2,5,6-tetrahydropyridin-3-yl)-1H-indole] yielded an inhibition constant (Ki) in test [1] (setting [6]) of 823 nM. This molecule had an EC50 in test [2] (setting [7]) of 162 nM. Moreover, the maximum response (Emax) in test [2] (setting [8]) is 79%.
As for `CCCN1CCC=C(c2n[nH]c3c(Cl)cccc23)C1` [Example 123, 7-chloro-3-(1-propyl-1,2,5,6-tetrahydropyridin-3-yl)-1H-indazole], in test [1] (setting [6]), the affinity corresponds to a Ki of 140 nM. The molecule also displayed an EC50 in test [2] (setting [7]) of 142 nM. Moreover, the maximal response (Emax) in test [2] (setting [8]) came out at 66.9%.
On to `Fc1cc(F)c2[nH]cc(C3CNC3)c2c1` [Example 264, 3-(azetidin-3-yl)-5,7-difluoro-1H-indole], for which the inhibitory constant (Ki) in test [1] (setting [9]) was found to be 98.8 nM. Besides, in test [2] (setting [4]), the EC50 is 165 nM. Also, the maximal effect (Emax) in test [2] (setting [5]) was found to be 44.7%.
In test [1] (setting [3]), `Cc1ccc2[nH]cc(C3=CCCNC3)c2n1` [Example 139, 5-methyl-3-(1,2,5,6-tetrahydropyridin-3-yl)-1H-pyrrolo[3,2-b]pyridine] gave a Ki of 4180 nM. The same molecule returned a 50% effective concentration (EC50) in test [2] (setting [4]) of 785 nM. Also, in test [2] (setting [5]), the maximum response (Emax) was 112%.
For `Clc1cccc2c(C3=CCCN(CC4CC4)C3)n[nH]c12` [Example 151, 7-chloro-3-(1-(cyclopropylmethyl)-1,2,5,6-tetrahydropyridin-3-yl)-1H-indazole], the Ki in test [1] (setting [3]) is 198 nM. In test [2] (setting [4]), the EC50 is 61.1 nM. Also, in test [2] (read-out: 5HTA Gq Emax (%), BRET2 Gαq dissociation, HEK293T, normalized to 5-HT), the maximal response (Emax) was 38.8%.
Turning to `CN1CCOC(c2c[nH]c3c(Cl)cccc23)C1` (stereo not drawn) [Example 246, 2-(7-chloro-1H-indol-3-yl)-4-methylmorpholine], the affinity in test [1] (setting [3]), expressed as Ki, was 2140 nM. In test [2] (setting [4]), this molecule returned a concentration giving a half-maximal response (EC50) of 620 nM. Further, the Emax in test [2] (setting [5]) came to 69.6%.
As to `Cc1cccc2c(N3CCN(C)CC3)n[nH]c12` [Example 234, 7-methyl-3-(4-methylpiperazin-1-yl)-1H-indazole], in test [1] (setting [3]), the affinity corresponds to a Ki of 259 nM.
Same read-out and setting: then `CCCc1cccc2c(C3=CCCNC3)n[nH]c12` [Example 236], with 294 nM.
In turn, `Cc1cnc2[nH]cc(C3=CCCN(C)C3)c2c1` [Example 5, 5-methyl-3-(1-methyl-1,2,5,6-tetrahydropyridin-3-yl)-1H-pyrrolo[2,3-b]pyridine] registered an inhibition constant (Ki) in test [1] (setting [6]) of 717 nM.
Molecule `NC1CCC=C(c2n[nH]c3c(Cl)cccc23)C1` (stereo not drawn) [Example 169, 3-(7-chloro-1H-indazol-3-yl)cyclohex-3-en-1-amine] had a Ki in test [1] (setting [3]) of more than 10000 nM.
On the same count and under the same terms, then `N#Cc1cccc2c(N3CCNCC3)n[nH]c12` [Example 231, 3-(piperazin-1-yl)-1H-indazole-7-carbonitrile], with 3010 nM.
The molecule `CC(C)(C)c1ccc2c(C3=CCCNC3)c[nH]c2c1` [Example 37, 6-(tert-butyl)-3-(1,2,5,6-tetrahydropyridin-3-yl)-1H-indole] had a Ki in test [1] (setting [6]) of 9910 nM.
For the molecule `CCCNC1CCC=C(c2n[nH]c3c(Cl)cccc23)C1` (stereo not drawn) [Example 171, 3-(7-chloro-1H-indazol-3-yl)-N-propylcyclohex-3-en-1-amine], in test [1] (setting [3]), the Ki is more than 10000 nM.
Molecule `CN1CCC=C(c2c[nH]c3c(CO)cccc23)C1` [Example 58, (3-(1-methyl-1,2,5,6-tetrahydropyridin-3-yl)-1H-indol-7-yl)methanol] showed an inhibition constant Ki in test [1] (setting [6]) of more than 10000 nM.
On the same count and under the same terms, the figure for `CCN(CC)C(=O)NC1C=C(c2c[nH]c3ncccc23)CNC1` (stereo not drawn) [Example 49, 3-(5-(1H-pyrrolo[2,3-b]pyridin-3-yl)-1,2,3,6-tetrahydropyridin-3-yl)-1,1-diethylurea] is 5580 nM.
`CN1CCC(c2n[nH]c3c(Cl)cccc23)C1` (stereo not drawn) [Example 222, 7-chloro-3-(1-methylpyrrolidin-3-yl)-1H-indazole] displayed an inhibitory constant (Ki) in test [1] (setting [3]) of 6980 nM.
In the case of `Clc1cccc2c(C3=CCCN(C4COC4)C3)n[nH]c12` [Example 178, 7-chloro-3-(1-(oxetan-3-yl)-1,2,5,6-tetrahydropyridin-3-yl)-1H-indazole], the Ki in test [1] (setting [3]) was more than 10000 nM.
`Clc1cc(Cl)c2[nH]cc(C3CNC3)c2c1` [Example 266, 3-(azetidin-3-yl)-5,7-dichloro-1H-indole] had a Ki in test [1] (setting [3]) of 244 nM.
Same read-out and setting: the figure for `Clc1cccc2c(C3=CCOCC3)n[nH]c12` [Example 220, 7-chloro-3-(3,6-dihydro-2H-pyran-4-yl)-1H-indazole] is more than 10000 nM; for `N#Cc1cccc2c(C34CNCC3C4(F)F)n[nH]c12` (stereo not drawn) [Example 202, 3-(6,6-difluoro-3-azabicyclo[3.1.0]hexan-1-yl)-1H-indazole-7-carbonitrile] it is more than 10000 nM; for `Cc1cccc2c(C34CNCCC3C4(F)F)n[nH]c12` (stereo not drawn) [Example 189, 3-(7,7-difluoro-3-azabicyclo[4.1.0]heptan-1-yl)-7-methyl-1H-indazole] it is 6920 nM.
In turn, `CC(C)c1ccc2c(C3=CCCN(C)C3)c[nH]c2c1` [Example 34, 6-isopropyl-3-(1-methyl-1,2,5,6-tetrahydropyridin-3-yl)-1H-indole] returned an inhibitory constant (Ki) in test [1] (setting [6]) of 486 nM.
On to `Cc1cccc2c(C34CNCC3C4(F)F)n[nH]c12` (stereo not drawn) [Example 200], for which the Ki in test [1] (setting [3]) is more than 10000 nM.
`Cc1cc(Br)cc2c(C3CNC3)c[nH]c12` [Example 265, 3-(azetidin-3-yl)-5-bromo-7-methyl-1H-indole] gave a Ki in test [1] (setting [3]) of 217 nM.
`Cc1ccc2c(C3=CCCNC3)c[nH]c2c1` [Example 29, 6-methyl-3-(1,2,5,6-tetrahydropyridin-3-yl)-1H-indole] gave a Ki in test [1] (setting [6]) of 1200 nM.
In test [1] (setting [3]), `Clc1cccc2c(-c3cnc[nH]3)n[nH]c12` [Example 217, 7-chloro-3-(1H-imidazol-5-yl)-1H-indazole] returned a Ki of more than 10000 nM.
Consider `C1=C(c2c[nH]c3cnccc23)CNCC1` [Example 142, 3-(1,2,5,6-tetrahydropyridin-3-yl)-1H-pyrrolo[2,3-c]pyridine], for which the inhibition constant Ki in test [1] (setting [9]) was 152 nM.
`CN1CC=C(c2n[nH]c3c(Cl)cccc23)CC1` [Example 239, 7-chloro-3-(1-methyl-1,2,3,6-tetrahydropyridin-4-yl)-1H-indazole] gave a Ki in test [1] (setting [3]) of 603 nM.
With `CN(C)C1CCC=C(c2n[nH]c3c(Cl)cccc23)C1` (stereo not drawn) [Example 170, 3-(7-chloro-1H-indazol-3-yl)-N,N-dimethylcyclohex-3-en-1-amine], the Ki in test [1] (setting [3]) is more than 10000 nM.
As to `CCCN1CC=C(c2n[nH]c3c(Cl)cccc23)CC1` [Example 242, 7-chloro-3-(1-propyl-1,2,3,6-tetrahydropyridin-4-yl)-1H-indazole], the Ki in test [1] (setting [3]) is 330 nM.
For `C1=C(c2c[nH]c3nccc(-c4ccccc4)c23)CNCC1` [Example 12, 4-phenyl-3-(1,2,5,6-tetrahydropyridin-3-yl)-1H-pyrrolo[2,3-b]pyridine], the Ki in test [1] (setting [6]) came to 191 nM.
In test [1] (setting [6]), `O=C(O)c1cccc2c(C3=CCCN(Cc4ccccc4)C3)c[nH]c12` [Example 74, 3-(1-benzyl-1,2,5,6-tetrahydropyridin-3-yl)-1H-indole-7-carboxylic acid] showed a Ki of more than 10000 nM.
`Cc1cccc2c(C3=CN4CCC3CC4)c[nH]c12` [Example 252, 3-(7-methyl-1H-indol-3-yl)-1-azabicyclo[2.2.2]oct-2-ene]: in test [1] (setting [3]), the affinity corresponds to a Ki of 6020 nM.
Same read-out and setting: the figure for `c1cc(-c2cncnc2)c2[nH]nc(-c3cncnc3)c2c1` [Example 215, 3,7-di(pyrimidin-5-yl)-1H-indazole] is 3280 nM.
For `CC(C)N1CCOC(c2c[nH]c3c(Cl)cccc23)C1` (stereo not drawn) [Example 248, 2-(7-chloro-1H-indol-3-yl)-4-isopropylmorpholine], the Ki in test [1] (setting [3]) came out at 5890 nM.
In test [1] (setting [6]), `CN1CCC=C(c2cn(C)c3ncccc23)C1` [Example 48, 1-methyl-3-(1-methyl-1,2,5,6-tetrahydropyridin-3-yl)-1H-pyrrolo[2,3-b]pyridine] yielded a Ki of 423 nM.

The values are drawn from patent US20260265246A1 (ICAHN SCHOOL OF MEDICINE AT MOUNT SINAI, priority 2021, published 2026).
